# Measurements published in patent US4398023A, “β-1,3-Glucanpolyol, process for preparation thereof, and utilization thereof” (Meito Sangyo Kabushiki Kaisha, priority 1979, dated 1983).
# Columns and labels:
# Sarcoma 180 [1] = assay: Antitumor activity test using Sarcoma 180 in Balb/c mice; format: in vivo; conditions: 1 mg/kg/day, intraperitoneal, once a day for 10 days, fifth week
# Protocol: (§1) The ascites cells of Sarcoma 180 were inoculated peritoneally in ICR-JCL mice having a body weight of about 23 g. […] Starting 24 hours after the transplantation, the glucanpolyol of this invention was intraperitoneally administered once a day for 10 days. In the fifth week, the tumor was enucleated and its weight was compared with that in non-treated groups. The tumor inhibition ratio was calculated, and the number of tumors which completely regressed was observed.
# (§2) The tumor inhibition ratio was calculated in accordance with the following equation. [formula] wherein C is the average weight of tumor in non-treated groups (10 mice per group),
# (§3) T is the average weight of tumor in treated groups (10 mice per group).
# (5) An antitumor activity test using Sarcoma 180 in Balb/c mice
# Six million Sarcoma 180 cells were transplanted into the subcutaneous portion of the right inguinal part of the Balb/c mice having a body weight of about 23 g, and then, the same operation as in (1 ) above was performed.
# Sarcoma 180 [2] = assay: Antitumor activity test using Sarcoma 180 in C3H/He mice; format: in vivo; conditions: intraperitoneal, once a day for 10 days, fifth week
# Protocol: (§4) Starting 24 hours after the transplantation, the glucanpolyol of this invention was intraperitoneally administered once a day for 10 days. In the fifth week, the tumor was enucleated and its weight was compared with that in non-treated groups. The tumor inhibition ratio was calculated, and the number of tumors which completely regressed was observed.
# as §2, §3
# (4) An antitumor activity test using Sarcoma 180 in C3H/He mice
# ICR-JCL mice = assay: Toxicity (LD50) on ICR-JCL mice; format: in vivo; conditions: ICR-JCL mice
# Source text: The toxicity of the β-1,3-glucanpolyol of this invention is very low, and the LD50 values of the products obtained in Examples 1, 4 and 5, for example, on ICR-JCL mice are as shown in Table 10.
# Sarcoma 180 [3] = assay: Antitumor activity test using Sarcoma 180 in C57 BL/6 mice; format: in vivo; conditions: 1 mg/kg/day, intraperitoneal, once a day for 10 days, fifth week
# Protocol: as §1, §2, §3
# (6) An antitumor activity test using Sarcoma 180 in C57 BL/6 mice
# Six million Sarcoma 180 cells were transplanted into the subcutaneous portion of the right inguinal part of the C57 BL/6 mice having a body weight of about 20 g, and then the same operation as in (1) above was performed.
# CCM-adenocarcinoma = assay: Antitumor activity test using CCM-adenocarcinoma in ICR-JCL mice; format: in vivo; conditions: 1 mg/kg/day, intraperitoneal, once a day for 10 days, fifth week
# Protocol: as §1, §2, §3
# (8) An antitumor activity test using CCM-adenocarcinoma in ICR-JCL mice
# Six million CCM-adenocarcinoma cells were transplanted into the subcutaneous portion of the right inguinal part of ICR-JCL mice having a body weight of about 23 g, and then the same operation as in (1) above was performed.
# Meth-A = assay: Antitumor activity test using Meth-A in Balb/c mice; format: in vivo; conditions: intraperitoneal, once a day for 10 days, fifth week
# Protocol: as §4, §2, §3
# (3) An antitumor activity test using Meth-A in Balb/c mice
# Sarcoma 180 [4] = assay: Antitumor activity test using Sarcoma 180 in ICR-JCL mice; format: in vivo; conditions: intraperitoneal, once a day for 10 days, fifth week
# Protocol: (1) An antitumor activity test using Sarcoma 180 in ICR-JCL mice
# as §4, §2, §3
# Sarcoma 180 [5] = assay: Antitumor activity test using Sarcoma 180 in ddY mice; format: in vivo; conditions: 1 mg/kg/day, intraperitoneal, once a day for 10 days, fifth week
# Protocol: as §1, §2, §3
# (7) An antitumor activity test using Sarcoma 180 in ddY mice
# Six million Sarcoma 180 cells were transplanted into the subcutaneous portion of the right inguinal part of ddY mice having a body weight of about 23 g, and then, the same operation as in (1) above was performed.
# [6] = Intrinsic viscosity [.eta.]; format: physicochemical; conditions: 25° C., aqueous solution; concentration in g/100 ml
# Protocol: The intrinsic viscosity, as used in the present invention, is [.eta.] defined by the following equation. [formula] wherein .eta.sp =(.eta.-.eta.o)/.eta.o =/.eta.o -1 in which .eta. is the viscosity (at 25° C. in aqueous solution) of the solution and .eta.o is the viscosity of the solvent; and C is the concentration in g/100 ml.
# Ehrlich Carcinoma = assay: Antitumor activity test using Ehrlich Carcinoma in ICR-JCL mice; format: in vivo; conditions: intraperitoneal, once a day for 10 days, fifth week
# Protocol: as §4, §2, §3
# (2) An antitumor activity test using Ehrlich Carcinoma in ICR-JCL mice
# [7] = system: NTF-reticulum cell sarcoma; assay: Antitumor activity test using NTF-reticulum cell sarcoma in ICR-JCL mice; format: in vivo; conditions: 1 mg/kg/day, intraperitoneal, once a day for 10 days, fifth week
# Protocol: as §1, §2, §3
# (9) An antitumor activity test using NTF-reticulum cell sarcoma in ICR-JCL mice
# Six million NFT-reticulum cell sarcoma cells were transplanted into the subcutaneous portion of the right inguinal part of ICR-JCL mice having a body weight of about 23 g, and then, the same operation as in (1) above was performed.
substance,measurement,setting,value
"β-1,3-glucanpolyol [Example 1]",Average weight of tumor,Sarcoma 180 [1],0.08 g
same,Complete regression,Sarcoma 180 [1],9/10
same,Tumor inhibition ratio,Sarcoma 180 [1],97.8%
same,Average weight of tumor,Sarcoma 180 [2]; 1 mg/kg/day,5.14 g
same,Complete regression,Sarcoma 180 [2]; 1 mg/kg/day,0/10
same,Tumor inhibition ratio,Sarcoma 180 [2]; 1 mg/kg/day,60.2%
same,Average weight of tumor,Sarcoma 180 [2]; 5 mg/kg/day,2.14 g
same,Complete regression,Sarcoma 180 [2]; 5 mg/kg/day,6/10
same,Tumor inhibition ratio,Sarcoma 180 [2]; 5 mg/kg/day,83.4%
same,Average weight of tumor,Sarcoma 180 [2]; 20 mg/kg/day,4.62 g
same,Complete regression,Sarcoma 180 [2]; 20 mg/kg/day,1/10
same,Tumor inhibition ratio,Sarcoma 180 [2]; 20 mg/kg/day,64.2%
same,LD50 Intraperitoneal administration,ICR-JCL mice; intraperitoneal,above 2 g/kg
same,LD50 Intravenous administration,ICR-JCL mice; intravenous,above 0.5 g/kg
same,LD50 Oral administration,ICR-JCL mice; oral,above 20 g/kg
same,Average weight of tumor,Sarcoma 180 [3],0.15 g
same,Complete regression,Sarcoma 180 [3],8/10
same,Tumor inhibition ratio,Sarcoma 180 [3],95.8%
same,Average weight of tumor,CCM-adenocarcinoma,0.52 g
same,Complete regression,CCM-adenocarcinoma,7/10
same,Tumor inhibition ratio,CCM-adenocarcinoma,95.7%
same,Average weight of tumor,Meth-A; 1 mg/kg/day,7.74 g
same,Complete regression,Meth-A; 1 mg/kg/day,0/10
same,Tumor inhibition ratio,Meth-A; 1 mg/kg/day,42.1%
same,Average weight of tumor,Meth-A; 5 mg/kg/day,5.57 g
same,Complete regression,Meth-A; 5 mg/kg/day,0/10
same,Tumor inhibition ratio,Meth-A; 5 mg/kg/day,58.3%
same,Average weight of tumor,Meth-A; 20 mg/kg/day,9.25 g
same,Complete regression,Meth-A; 20 mg/kg/day,0/10
same,Tumor inhibition ratio,Meth-A; 20 mg/kg/day,30.8%
same,Average weight of tumor,Sarcoma 180 [4]; 1 mg/kg/day,0.28 g
same,Complete regression,Sarcoma 180 [4]; 1 mg/kg/day,9/10
same,Tumor inhibition ratio,Sarcoma 180 [4]; 1 mg/kg/day,97.5%
same,Average weight of tumor,Sarcoma 180 [4]; 5 mg/kg/day,0 g
same,Complete regression,Sarcoma 180 [4]; 5 mg/kg/day,10/10
same,Tumor inhibition ratio,Sarcoma 180 [4]; 5 mg/kg/day,100%
same,Average weight of tumor,Sarcoma 180 [4]; 10 mg/kg/day,0.17 g
same,Complete regression,Sarcoma 180 [4]; 10 mg/kg/day,9/10
same,Tumor inhibition ratio,Sarcoma 180 [4]; 10 mg/kg/day,98.5%
same,Average weight of tumor,Sarcoma 180 [5],0.39 g
same,Complete regression,Sarcoma 180 [5],7/10
same,Tumor inhibition ratio,Sarcoma 180 [5],96.5%
same,Intrinsic viscosity [.eta.],[6],6.21 dL/g
same,Average weight of tumor,Ehrlich Carcinoma; 1 mg/kg/day,0 g
same,Complete regression,Ehrlich Carcinoma; 1 mg/kg/day,10/10
same,Tumor inhibition ratio,Ehrlich Carcinoma; 1 mg/kg/day,100%
same,Average weight of tumor,Ehrlich Carcinoma; 5 mg/kg/day,0 g
same,Complete regression,Ehrlich Carcinoma; 5 mg/kg/day,10/10
same,Tumor inhibition ratio,Ehrlich Carcinoma; 5 mg/kg/day,100%
same,Average weight of tumor,Ehrlich Carcinoma; 20 mg/kg/day,0.31 g
same,Complete regression,Ehrlich Carcinoma; 20 mg/kg/day,7/10
same,Tumor inhibition ratio,Ehrlich Carcinoma; 20 mg/kg/day,97.9%
same,Average weight of tumor,[7],0.51 g
same,Complete regression,[7],8/10
same,Tumor inhibition ratio,[7],91.1%
"β-1,3-glucanpolyol [Example 2]",Average weight of tumor,Sarcoma 180 [1],0.09 g
same,Complete regression,Sarcoma 180 [1],8/10
same,Tumor inhibition ratio,Sarcoma 180 [1],97.5%
same,Average weight of tumor,Sarcoma 180 [2]; 5 mg/kg/day,3.50 g
same,Complete regression,Sarcoma 180 [2]; 5 mg/kg/day,4/10
same,Tumor inhibition ratio,Sarcoma 180 [2]; 5 mg/kg/day,72.9%
same,Average weight of tumor,Sarcoma 180 [3],0.21 g
same,Complete regression,Sarcoma 180 [3],8/10
same,Tumor inhibition ratio,Sarcoma 180 [3],94.1%
same,Average weight of tumor,CCM-adenocarcinoma,0.61 g
same,Complete regression,CCM-adenocarcinoma,8/10
same,Tumor inhibition ratio,CCM-adenocarcinoma,95.0%
same,Average weight of tumor,Meth-A; 5 mg/kg/day,6.73 g
same,Complete regression,Meth-A; 5 mg/kg/day,0/10
same,Tumor inhibition ratio,Meth-A; 5 mg/kg/day,49.6%
same,Average weight of tumor,Sarcoma 180 [4]; 5 mg/kg/day,0.30 g
same,Complete regression,Sarcoma 180 [4]; 5 mg/kg/day,8/10
same,Tumor inhibition ratio,Sarcoma 180 [4]; 5 mg/kg/day,97.3%
same,Average weight of tumor,Sarcoma 180 [5],1.08 g
same,Complete regression,Sarcoma 180 [5],7/10
same,Tumor inhibition ratio,Sarcoma 180 [5],90.3%
same,Intrinsic viscosity [.eta.],[6],7.25 dL/g
same,Average weight of tumor,Ehrlich Carcinoma; 1 mg/kg/day,1.27 g
same,Complete regression,Ehrlich Carcinoma; 1 mg/kg/day,6/10
same,Tumor inhibition ratio,Ehrlich Carcinoma; 1 mg/kg/day,91.5%
same,Average weight of tumor,Ehrlich Carcinoma; 5 mg/kg/day,0.83 g
same,Complete regression,Ehrlich Carcinoma; 5 mg/kg/day,7/10
same,Tumor inhibition ratio,Ehrlich Carcinoma; 5 mg/kg/day,94.4%
same,Average weight of tumor,[7],0.37 g
same,Complete regression,[7],8/10
same,Tumor inhibition ratio,[7],93.6%
"β-1,3-glucanpolyol [Example 7]",Intrinsic viscosity [.eta.],[6],8.55 dL/g
